This note sets out measurements from publication PMC4621896 (Oncotarget, 2015).

Read-outs that look alike come from different tables or passages of the source.

In test [1] the target is YopH from Yersinia enterocolitica (Yersinia enterocolitica, UniProt P15273). Kind of test: biochemical.
Another test addresses T1, Human recombinant CD45 (Homo sapiens, UniProt P08575).
T1 construct: purchased Sigma-Aldrich
T1 sequence (P08575 609-1306 limits assumed): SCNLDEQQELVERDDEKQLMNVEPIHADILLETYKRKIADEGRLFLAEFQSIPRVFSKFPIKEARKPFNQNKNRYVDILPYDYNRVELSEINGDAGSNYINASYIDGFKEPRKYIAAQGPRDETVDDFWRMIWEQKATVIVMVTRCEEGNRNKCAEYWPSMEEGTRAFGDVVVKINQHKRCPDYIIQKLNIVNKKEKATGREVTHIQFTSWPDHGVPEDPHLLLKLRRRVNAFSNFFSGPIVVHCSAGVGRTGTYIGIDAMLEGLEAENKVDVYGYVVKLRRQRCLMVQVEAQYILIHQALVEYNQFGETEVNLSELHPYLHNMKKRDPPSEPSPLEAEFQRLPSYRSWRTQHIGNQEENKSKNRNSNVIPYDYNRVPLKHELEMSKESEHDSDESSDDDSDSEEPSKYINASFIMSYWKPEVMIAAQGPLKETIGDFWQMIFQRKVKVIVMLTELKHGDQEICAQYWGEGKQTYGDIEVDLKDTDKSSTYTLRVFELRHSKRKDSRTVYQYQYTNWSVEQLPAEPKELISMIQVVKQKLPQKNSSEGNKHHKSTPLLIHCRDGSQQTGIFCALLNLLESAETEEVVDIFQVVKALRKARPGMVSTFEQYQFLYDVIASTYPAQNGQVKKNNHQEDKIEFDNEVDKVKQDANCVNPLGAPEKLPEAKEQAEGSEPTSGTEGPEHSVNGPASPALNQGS
Put plainly: biochemical.

The target in another test is YopH Y. enterocolitica (Yersinia enterocolitica, UniProt P15273). Type of test: biochemical.
The target in test [2] is YopH protein tyrosine phosphatase from Yersinia pestis (Yersinia pestis, UniProt O68720). Put plainly: biochemical.
Test [3] addresses T2, YopH (Yersinia enterocolitica, UniProt P15273). Type of test: biochemical.
In test [4] the target is T2, YopH. Type of test: biochemical. This is another data set of the same source.

T2 sequence (P15273 whole entry, looked up): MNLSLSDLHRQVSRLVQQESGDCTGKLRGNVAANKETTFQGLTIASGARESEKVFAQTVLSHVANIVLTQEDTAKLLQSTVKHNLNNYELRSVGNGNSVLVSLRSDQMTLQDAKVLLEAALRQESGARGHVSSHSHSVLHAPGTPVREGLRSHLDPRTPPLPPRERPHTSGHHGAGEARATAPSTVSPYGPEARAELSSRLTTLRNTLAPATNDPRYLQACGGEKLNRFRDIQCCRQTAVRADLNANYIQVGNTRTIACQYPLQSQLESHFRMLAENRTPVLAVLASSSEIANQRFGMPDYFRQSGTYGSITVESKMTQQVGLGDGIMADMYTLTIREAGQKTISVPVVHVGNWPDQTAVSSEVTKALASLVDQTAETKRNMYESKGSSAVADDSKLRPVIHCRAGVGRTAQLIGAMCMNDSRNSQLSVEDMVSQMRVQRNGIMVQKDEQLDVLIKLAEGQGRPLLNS
YopH protein tyrosine phosphatase from Yersinia pestis, sequence (O68720 1-468): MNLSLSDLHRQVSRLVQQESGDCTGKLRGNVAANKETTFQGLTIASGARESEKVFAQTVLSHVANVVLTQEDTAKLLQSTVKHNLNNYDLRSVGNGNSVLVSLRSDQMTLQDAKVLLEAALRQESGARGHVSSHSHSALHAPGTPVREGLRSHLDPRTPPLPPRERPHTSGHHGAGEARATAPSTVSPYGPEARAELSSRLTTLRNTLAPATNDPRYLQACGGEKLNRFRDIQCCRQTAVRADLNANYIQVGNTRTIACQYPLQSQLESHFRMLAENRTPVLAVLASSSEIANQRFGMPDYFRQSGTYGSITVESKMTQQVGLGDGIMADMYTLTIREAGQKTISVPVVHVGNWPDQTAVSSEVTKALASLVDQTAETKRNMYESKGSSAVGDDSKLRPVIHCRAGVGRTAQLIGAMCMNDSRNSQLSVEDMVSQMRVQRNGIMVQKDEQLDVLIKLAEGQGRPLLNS
YopH from Yersinia enterocolitica, sequence (P15273 whole entry, looked up): as the sequence (P15273 whole entry, looked up) above
YopH Y. enterocolitica, sequence (P15273 whole entry, looked up): as above

Broadly, the IC50 is the midpoint of a concentration-inhibition curve. On to `O=C(O)C1=CC(=C(c2ccc(O)c(C(=O)O)c2)c2ccc(O)c(C(=O)O)c2)C=CC1=O` [ATA, aurintricarboxylic acid], for which the IC50 in test [1] came out at 100 nM; at Human recombinant CD45, 200 nM; in test [2], 10 nM. For the same compound, the “Effect of catalase pretreatment on ATA induced CD45 inactivation” value on Human recombinant CD45 is “almost completely protected”. Moreover, at YopH Y. enterocolitica, the “Reversibility of ATA induced inhibition of YopH” value was “completely reversed”. Besides, the “Effect of catalase pretreatment on ATA induced YopH inactivation” value at YopH [3] is recorded as “almost completely protected”. Further, the “Effect of catalase on ATA induced decrease of thiol adducts” value on YopH [4] is on record as “completely prevented”. The “Reduction of thiol-NBD adducts compared to control” value on YopH [4] is “over 50%”.
Turning to `CCCCCCCC(=O)OO` [peroctanoic acid], the IC50 in test [1] (read-out: IC50 value, YopH Y.entorocolitica inhibition) came to 39 nM; on Human recombinant CD45 (read-out: IC50 value, CD45 inhibition), 25 nM; in test [2] (read-out: IC50 value, YopH Y.pestis inhibition) it was 41 nM.
